Laboratory results: ChEMBL document CHEMBL1133500, “Active site binding modes of HIV-1 integrase inhibitors” (J Med Chem, 2000)

What was measured:
[1] = Inhibitory activity against ASV (avian sarcoma virus) integrase; Range 40-350 uM
[2] = biological target: T1, Human immunodeficiency virus type 1 integrase (Human immunodeficiency virus 1, UniProt Q7ZJM1)
[3] = biological target: T1, Human immunodeficiency virus type 1 integrase; remark: listed apart in the source

T1 sequence (Q7ZJM1 whole entry): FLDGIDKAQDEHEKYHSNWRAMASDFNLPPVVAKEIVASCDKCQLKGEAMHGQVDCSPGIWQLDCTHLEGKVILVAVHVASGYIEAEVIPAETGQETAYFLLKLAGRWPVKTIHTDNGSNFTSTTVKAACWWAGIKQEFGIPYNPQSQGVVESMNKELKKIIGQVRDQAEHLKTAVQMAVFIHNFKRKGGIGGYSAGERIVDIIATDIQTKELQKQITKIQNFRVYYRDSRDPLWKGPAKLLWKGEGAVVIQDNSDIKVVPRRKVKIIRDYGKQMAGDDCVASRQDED

IC50 [2] [µM]	Kd [3] [µM]	SMILES	IC50 [1] [µM]
		CC(=O)Nc1cc(S(=O)(=O)O)cc2cc(S(=O)(=O)O)cc(O)c12	< 350
< 17	< 15	O=C1c2ccc(O)c(O)c2C(=O)c2c(O)ccc(O)c21 [QUINALIZARIN]	
